#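 In this assay, cells in 96-well plates receive the compound at five concentrations for 48 hours. Endpoints are linearly interpolated between the surrounding concentrations. GI50 marks 50% less growth.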 Activity calls are given as the source filed them. Cut-off read from the data, not from the text of the source: active = GI50 up to about 1.1 µM and inactive = higher.
# Columns and labels:
# Test in all cases: DTP human tumour cell line panel, 48 h
# A549 = test system: A549
# HCT-116 = test system: HCT-116
# PC-3 = test system: PC-3
# Malme-3M = test system: Malme-3M
# HCT-15 = test system: HCT-15
# OVCAR-3 = test system: OVCAR-3
# CAKI-1 = test system: CAKI-1
# CCRF-CEM = test system: CCRF-CEM
# SK-MEL-2 = test system: SK-MEL-2
# SF-539 = test system: SF-539
# LOX IMVI = test system: LOX IMVI
# M14 = test system: M14
# NCI-H460 = test system: NCI-H460
# SF-295 = test system: SF-295
# SW-620 = test system: SW-620
# SN12C = test system: SN12C
# IGROV-1 = test system: IGROV-1
# ACHN = test system: ACHN
# TK-10 = test system: TK-10
# UACC-257 = test system: UACC-257
# SF-268 = test system: SF-268
# KM12 = test system: KM12
# K562 = test system: K562
# T47D = test system: T47D
# COLO 205 = test system: COLO 205
# Hs-578T = test system: Hs-578T
# U-251 = test system: U-251
# UACC-62 = test system: UACC-62
# DU-145 = test system: DU-145
# MDA-MB-231 = test system: MDA-MB-231
# EKVX = test system: EKVX
# HT-29 = test system: HT-29
# MOLT-4 = test system: MOLT-4
# MDA-MB-435 = test system: MDA-MB-435
# NCI-H226 = test system: NCI-H226
# HCC 2998 = test system: HCC 2998
# A498 = test system: A498
# SK-MEL-28 = test system: SK-MEL-28
# RXF 393 = test system: RXF 393
# NCI-H522 = test system: NCI-H522
# RPMI-8226 = test system: RPMI-8226
# OVCAR-4 = test system: OVCAR-4
# MDA-N = test system: MDA-N
# HOP-92 = test system: HOP-92
# HOP-62 = test system: HOP-62
# MCF7 = test system: MCF7
# NCI/ADR-RES = test system: NCI/ADR-RES
# BT-549 = test system: BT-549
# OVCAR-5 = test system: OVCAR-5
# 786-0 = test system: 786-0
# SK-OV-3 = test system: SK-OV-3
# UO-31 = test system: UO-31
# SNB-75 = test system: SNB-75
# SNB-19 = test system: SNB-19
# SK-MEL-5 = test system: SK-MEL-5
# NCI-H23 = test system: NCI-H23
# HL-60 = test system: HL-60
# OVCAR-8 = test system: OVCAR-8
compound,measurement,setting,value
O=C(O)Cc1nc[nH]c1C(=O)O,GI50,A549,> 100 µM (inactive)
same,GI50,HCT-116,> 100 µM (inactive)
same,GI50,PC-3,> 100 µM (inactive)
same,GI50,Malme-3M,> 100 µM (inactive)
same,GI50,HCT-15,> 100 µM
same,GI50,OVCAR-3,> 100 µM (inactive)
same,GI50,CAKI-1,> 100 µM (inactive)
same,GI50,CCRF-CEM,> 100 µM (inactive)
same,GI50,SK-MEL-2,> 100 µM (inactive)
same,GI50,SF-539,> 100 µM (inactive)
same,GI50,LOX IMVI,> 100 µM (inactive)
same,GI50,M14,> 100 µM (inactive)
same,GI50,NCI-H460,> 100 µM (inactive)
same,GI50,SF-295,> 100 µM (inactive)
same,GI50,SW-620,> 100 µM (inactive)
same,GI50,SN12C,> 100 µM (inactive)
same,GI50,IGROV-1,> 100 µM (inactive)
same,GI50,ACHN,> 100 µM (inactive)
same,GI50,TK-10,> 100 µM (inactive)
same,GI50,UACC-257,> 100 µM (inactive)
same,GI50,SF-268,> 100 µM (inactive)
same,GI50,KM12,> 100 µM (inactive)
same,GI50,K562,> 100 µM (inactive)
same,GI50,T47D,> 100 µM (inactive)
same,GI50,COLO 205,> 100 µM (inactive)
same,GI50,Hs-578T,> 100 µM (inactive)
same,GI50,U-251,> 100 µM (inactive)
same,GI50,UACC-62,> 100 µM (inactive)
same,GI50,DU-145,> 100 µM (inactive)
same,GI50,MDA-MB-231,> 100 µM (inactive)
same,GI50,EKVX,> 100 µM (inactive)
same,GI50,HT-29,> 100 µM (inactive)
same,GI50,MOLT-4,> 100 µM (inactive)
same,GI50,MDA-MB-435,> 100 µM (inactive)
same,GI50,NCI-H226,> 100 µM (inactive)
same,GI50,HCC 2998,> 100 µM (inactive)
same,GI50,A498,> 100 µM (inactive)
same,GI50,SK-MEL-28,> 100 µM (inactive)
same,GI50,RXF 393,> 100 µM (inactive)
same,GI50,NCI-H522,> 100 µM (inactive)
same,GI50,RPMI-8226,> 100 µM (inactive)
same,GI50,OVCAR-4,> 100 µM (inactive)
same,GI50,MDA-N,> 100 µM (inactive)
same,GI50,HOP-92,> 100 µM (inactive)
same,GI50,HOP-62,> 100 µM (inactive)
same,GI50,MCF7,> 100 µM (inactive)
same,GI50,NCI/ADR-RES,> 100 µM (inactive)
same,GI50,BT-549,> 100 µM (inactive)
same,GI50,OVCAR-5,> 100 µM (inactive)
same,GI50,786-0,> 100 µM (inactive)
same,GI50,SK-OV-3,> 100 µM (inactive)
same,GI50,UO-31,> 100 µM (inactive)
same,GI50,SNB-75,> 100 µM (inactive)
same,GI50,SNB-19,> 100 µM (inactive)
same,GI50,SK-MEL-5,> 100 µM (inactive)
same,GI50,NCI-H23,> 100 µM (inactive)
same,GI50,HL-60,> 100 µM (inactive)
same,GI50,OVCAR-8,> 100 µM (inactive)
